One assay has as its system A431 (EGFR-WT) cells. The assay can be described thus: Inhibitory activity on proliferation of A431 (EGFR-WT) cells (CTG, 72 h). Format: cell-based. Particulars: Homo sapiens, A-431. The method, boiled down: (§1)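 IC50 values come from S-shaped dose-survival fits of CTG signal expressed as % of vehicle. Compound exposure lasted 72 h at 37 °C with 0.1% DMSO; seeding was 3000 A431 cells/well in DMEM+10% FBS and 1000 NCI-H1975 cells/well in RPMI1640+10% FBS.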

Assay [1] deals with NCI-H1975 (EGFR-L858R-T790M) cells. The assay can be described thus: Inhibitory activity on proliferation of NCI-H1975 (EGFR-L858R-T790M) cells (CTG, 72 h). Format: cell-based. The following applies: Homo sapiens. Put shortly: as §1
[2] abbreviates: read-out: IC50 (value in brackets).

These results are taken from US20240269298A1, “PHOSPHONYL DERIVATIVE, AND COMPOSITION AND PHARMACEUTICAL APPLICATION THEREOF” (XIZANG HAISCO PHARMACEUTICAL CO., LTD., priority 2021, published 2024).

Read-outs that look alike come from different tables or passages of the source.

By IC50 is commonly meant the concentration needed to halve the response being measured.

Turning to `COc1cc(N2CCC3(CCC(N4CCN(c5ccc6c(c5)C(=O)N(C5CCC(=O)NC5=O)C6=O)CC4)CC3)CC2)c(-c2cnn(C)c2)cc1Nc1ncc(Br)c(Nc2ccc(-c3ccccc3)cc2P(C)(C)=O)n1` (stereo not drawn) [Compound 82, 5-(4-(3-(4-((5-bromo-4-((3-(dimethylphosphoryl)-[1,1′-biphenyl]-4-yl)amino)pyrimidin-2-yl)amino)-5-methoxy-2-(1-methyl-1H-pyrazol-4-yl)phenyl)-3-azaspiro[5.5]undecan-9-yl)piperazin-1-yl)-2-(2,6-dioxopiperidin-3-yl)isoindoline-1,3-dione], the IC50 is at least 10000 nM with A431 (EGFR-WT) cells, below 100 nM in assay [1] (read-out: IC50 (class symbol)) and 90 nM in assay [1] (setting [2]).
Regarding `COc1cc(N2CCC3(CC2)CC(N2CCN(c4ccc5c(c4)C(=O)N(C4CCC(=O)NC4=O)C5=O)CC2)C3)c(-c2cnn(C)c2)cc1Nc1ncc(Br)c(Nc2ccc(-c3ccccc3)cc2P(C)(C)=O)n1` (stereo not drawn) [Compound 83, 5-(4-(7-(4-((5-bromo-4-((3-(dimethylphosphoryl)-[1,1′-biphenyl]-4-yl)amino)pyrimidin-2-yl)amino)-5-methoxy-2-(1-methyl-1H-pyrazol-4-yl)phenyl)-7-azaspiro[3.5]nonan-2-yl)piperazin-1-yl)-2-(2,6-dioxopiperidin-3-yl)isoindoline-1,3-dione], the values for the IC50 (in the assay with A431 (EGFR-WT) cells; in assay [1] (read-out: IC50 (class symbol)); in assay [1] (setting [2])) were at least 10000 nM, 100 to 500 nM and 126 nM, respectively.
On to `COc1cc(N2CCN(C3CCC4(CC3)CCN(c3ccc5c(c3)C(=O)N(C3CCC(=O)NC3=O)C5=O)CC4)CC2)c(-c2cnn(C)c2)cc1Nc1ncc(Br)c(Nc2ccc(-c3ccccc3)cc2P(C)(C)=O)n1` (stereo not drawn) [Compound 85, 5-(9-(4-(4-((5-bromo-4-((3-(dimethylphosphoryl)-[1,1′-biphenyl]-4-yl)amino)pyrimidin-2-yl)amino)-5-methoxy-2-(1-methyl-1H-pyrazol-4-yl)phenyl)piperazin-1-yl)-3-azaspiro [5.5]undecan-3-yl)-2-(2,6-dioxopiperidin-3-yl)isoindoline-1,3-dione], for which the IC50 in the assay on A431 (EGFR-WT) cells was at least 10000 nM; in assay [1] (read-out: IC50 (class symbol)), below 100 nM; in assay [1] (setting [2]), 77 nM.
The like results for `COc1cc(N2CCC(CN3CCN(c4ccc5c(c4)CN(C4CCC(=O)NC4=O)C5=O)CC3)CC2)c(-c2cnn(C)c2)cc1Nc1ncc(Cl)c(Nc2ccc(-c3ccccc3)cc2P(C)(C)=O)n1` (stereo not drawn) [Compound 105, 3-(5-(4-((1-(4-((5-chloro-4-((3-(dimethylphosphoryl)-[1,1′-biphenyl]-4-yl)amino)pyrimidin-2-yl)amino)-5-methoxy-2-(1-methyl-1H-pyrazol-4-yl)phenyl)piperidin-4-yl)methyl)piperazin-1-yl)-1-oxoisoindolin-2-yl)piperidine-2,6-dione] were, in that order, at least 10000 nM, below 100 nM and 58 nM.
The like results for `CCn1cc(-c2cc(Nc3ncc(Cl)c(Nc4ccc(-c5ccccc5)cc4P(C)(C)=O)n3)c(OC)cc2N2CCC(CN3CCN(c4ccc5c(c4)C(=O)N(C4CCC(=O)NC4=O)C5=O)CC3)CC2)cn1` (stereo not drawn) [Compound 110, 5-(4-((1-(4-((5-chloro-4-((3-(dimethylphosphoryl)-[1,1′-biphenyl]-4-yl)amino)pyrimidin-2-yl)amino)-2-(1-ethyl-1H-pyrazol-4-yl)-5-methoxyphenyl)piperidin-4-yl)methyl)piperazin-1-yl)-2-(2,6-dioxopiperidin-3-yl)isoindoline-1,3-dione] were, in that order, at least 10000 nM, 100 to 500 nM and 232 nM.
For `CCn1cc(-c2cc(Nc3ncc(Br)c(Nc4ccc(-c5ccccc5)cc4P(C)(C)=O)n3)c(OC)cc2N2CCC(CN3CCN(c4ccc5c(c4)C(=O)N(C4CCC(=O)NC4=O)C5=O)CC3)CC2)cn1` (stereo not drawn) [Compound 111, 5-(4-((1-(4-((5-bromo-4-((3-(dimethylphosphoryl)-[1,1′-biphenyl]-4-yl)amino)pyrimidin-2-yl)amino)-2-(1-ethyl-1H-pyrazol-4-yl)-5-methoxyphenyl)piperidin-4-yl)methyl)piperazin-1-yl)-2-(2,6-dioxopiperidin-3-yl)isoindoline-1,3-dione] the same measures were at least 10000 nM, 100 to 500 nM and 209 nM.
For the compound `COc1cc(N2CCN(C[C@H]3CCN(c4ccc5c(c4)C(=O)N(C4CCC(=O)NC4=O)C5=O)C3)CC2)c(-c2cnn(C)c2)cc1Nc1ncc(Cl)c(Nc2ccc(-c3ccccc3)cc2P(C)(C)=O)n1` (stereo partly drawn) [Compound 118, 5-((R)-3-((4-(4-((5-chloro-4-((3-(dimethylphosphoryl)-[1,1′-biphenyl]-4-yl)amino)pyrimidin-2-yl)amino)-5-methoxy-2-(1-methyl-1H-pyrazol-4-yl)phenyl)piperazin-1-yl)methyl)pyrrolidin-1-yl)-2-(2,6-dioxopiperidin-3-yl)isoindoline-1,3-dione], the IC50 in the assay on A431 (EGFR-WT) cells is at least 10000 nM; in assay [1] (read-out: IC50 (class symbol)) it was below 100 nM; in assay [1] (setting [2]), 40 nM.
For `COc1cc(N2CCN(C[C@H]3CCN(c4ccc5c(c4)C(=O)N(C4CCC(=O)NC4=O)C5=O)C3)CC2)c(-c2cnn(C)c2)cc1Nc1ncc(Cl)c(Nc2ccc(C3CC3)cc2P(C)(C)=O)n1` (stereo partly drawn) [Compound 119, 5-((R)-3-((4-(4-((5-chloro-4-((4-cyclopropyl-2-(dimethylphosphoryl)phenyl)amino)pyrimidin-2-yl)amino)-5-methoxy-2-(1-methyl-1H-pyrazol-4-yl)phenyl)piperazin-1-yl)methyl)pyrrolidin-1-yl)-2-(2,6-dioxopiperidin-3-yl)isoindoline-1,3-dione] the same measures were at least 10000 nM, below 100 nM and 29 nM.
The like results for `COc1cc(N2CCN(C[C@H]3CCN(c4ccc5c(c4)C(=O)N(C4CCC(=O)NC4=O)C5=O)C3)CC2)c(-c2cnn(C)c2)cc1Nc1ncc(Br)c(Nc2ccc(C3CC3)cc2P(C)(C)=O)n1` (stereo partly drawn) [Compound 121, 5-((R)-3-((4-(4-((5-bromo-4-((4-cyclopropyl-2-(dimethylphosphoryl)phenyl)amino)pyrimidin-2-yl)amino)-5-methoxy-2-(1-methyl-1H-pyrazol-4-yl)phenyl)piperazin-1-yl)methyl)pyrrolidin-1-yl)-2-(2,6-dioxopiperidin-3-yl)isoindoline-1,3-dione] were, in that order, at least 10000 nM, below 100 nM and 16 nM.
As to `COc1cc(N2CCN(CC3CCN(c4ccc5c(c4)C(=O)N(C4CCC(=O)NC4=O)C5=O)CC3)CC2)c(-c2cnn(C)c2)cc1Nc1ncc(Br)c(Nc2ccc(C3CC3)cc2P(C)(C)=O)n1` (stereo not drawn) [Compound 125, 5-(4-((4-(4-((5-bromo-4-((4-cyclopropyl-2-(dimethylphosphoryl)phenyl)amino)pyrimidin-2-yl)amino)-5-methoxy-2-(1-methyl-1H-pyrazol-4-yl)phenyl)piperazin-1-yl)methyl)piperidin-1-yl)-2-(2,6-dioxopiperidin-3-yl)isoindoline-1,3-dione], the IC50 was at least 10000 nM in the assay on A431 (EGFR-WT) cells, below 100 nM in assay [1] (read-out: IC50 (class symbol)) and 23 nM in assay [1] (setting [2]).
On to `COc1cc(N2CCN(CC3CCN(c4ccc5c(c4)C(=O)N(C4CCC(=O)NC4=O)C5=O)CC3)CC2)c(-c2cnn(C)c2)cc1Nc1ncc(Cl)c(Nc2ccc(C3CC3)cc2P(C)(C)=O)n1` (stereo not drawn) [Compound 126, 5-(4-((4-(4-((5-chloro-4-((4-cyclopropyl-2-(dimethylphosphoryl)phenyl)amino)pyrimidin-2-yl)amino)-5-methoxy-2-(1-methyl-1H-pyrazol-4-yl)phenyl)piperazin-1-yl)methyl)piperidin-1-yl)-2-(2,6-dioxopiperidin-3-yl)isoindoline-1,3-dione], for which the values for the IC50 (with A431 (EGFR-WT) cells; in assay [1] (read-out: IC50 (class symbol)); in assay [1] (setting [2])) were at least 10000 nM, below 100 nM and 39 nM, respectively.
Take `COc1cc(N2CCC(C(=O)N3CCN(c4ccc5c(c4)C(=O)N(C4CCC(=O)NC4=O)C5=O)CC3)CC2)c(-c2cnn(C)c2)cc1Nc1ncc(Cl)c(Nc2ccc(C3CC3)cc2P(C)(C)=O)n1` (stereo not drawn) [Compound 143, 5-(4-(1-(4-((5-chloro-4-((4-cyclopropyl-2-(dimethylphosphoryl)phenyl)amino)pyrimidin-2-yl)amino)-5-methoxy-2-(1-methyl-1H-pyrazol-4-yl)phenyl)piperidine-4-carbonyl)piperazin-1-yl)-2-(2,6-dioxopiperidin-3-yl)isoindoline-1,3-dione]: the IC50 was at least 10000 nM with A431 (EGFR-WT) cells, 100 to 500 nM in assay [1] (read-out: IC50 (class symbol)) and 110 nM in assay [1] (setting [2]).
As for `COc1cc(N2CCC(C(=O)N3CCN(c4ccc5c(c4)C(=O)N(C4CCC(=O)NC4=O)C5=O)CC3)CC2)c(-c2cnn(C)c2)cc1Nc1ncc(Br)c(Nc2ccc(C3CC3)cc2P(C)(C)=O)n1` (stereo not drawn) [Compound 145, 5-(4-(1-(4-((5-bromo-4-((4-cyclopropyl-2-(dimethylphosphoryl)phenyl)amino)pyrimidin-2-yl)amino)-5-methoxy-2-(1-methyl-1H-pyrazol-4-yl)phenyl)piperidine-4-carbonyl)piperazin-1-yl)-2-(2,6-dioxopiperidin-3-yl)isoindoline-1,3-dione], the IC50 with A431 (EGFR-WT) cells is at least 10000 nM; in assay [1] (read-out: IC50 (class symbol)) it was below 100 nM; in assay [1] (setting [2]) it was 69 nM.
`COc1cc(N2CCC(C(=O)N3CCN(c4ccc5c(c4)C(=O)N(C4CCC(=O)NC4=O)C5=O)CC3)CC2)c(-c2cnn(C)c2)cc1Nc1ncc(Br)c(Nc2ccccc2P(C)(C)=O)n1` (stereo not drawn) [Compound 146, 5-(4-(1-(4-((5-bromo-4-((2-(dimethylphosphoryl)phenyl)amino)pyrimidin-2-yl)amino)-5-methoxy-2-(1-methyl-1H-pyrazol-4-yl)phenyl)piperidine-4-carbonyl)piperazin-1-yl)-2-(2,6-dioxopiperidin-3-yl)isoindoline-1,3-dione]: the IC50 with A431 (EGFR-WT) cells was at least 10000 nM; in assay [1] (read-out: IC50 (class symbol)), below 100 nM; in assay [1] (setting [2]) it was 95 nM.
